“Also recorded” adds a separate entry of the source.
How the values were obtained:
SGS patient fibroblasts = test: qPCR of TGFβ target genes in TGFβ1-stimulated primary human dermal fibroblasts; format: cell-based; details: for Expression level of COL3A1 and FN1 relative to β-actin / Expression level of SKI and SMAD7 relative to β-actin: control and SGS patient fibroblasts, vs vehicle treated
Description: Primary human dermal fibroblasts were derived from forearm skin biopsies of two controls and two patients with Shprintzen-Goldberg syndrome from previously described. The fibroblasts were cultured in Dulbecco's modified eagle medium (DMEM) with 10% fetal bovine serum (FBS) in the presence of antibiotics and passaged confluence. According to previously described protocols with slight modifications (2), all cell culture experiments were conducted in serum-starved media for 24 hours prior to drug treatment. Stimulation was performed using 10 ng/ml recombinant human TGFβ1 (R&D system). […] Cells were collected at baseline, 6 hours after TGFβ1 stimulation. RNA was extracted from the cells using Trizol (ThermoFisher) by RNeasy mini kit (QIAGEN), as per the manufacturer's manual.
Total RNA was isolated from mouse aortas or cultured cells by RNeasy mini kit (QIAGEN), as per the manufacturer's manual. Quantitative PCR was performed in triplicate with TaqMan Universal PCR Master Mix using an ABI Prism 7900 HT QPCR machine (all from Applied Biosystems), as per the manufacturer's manual. The following prevalidated TaqMan probes were used to detect specific transcripts: Mm00801666_g1 (Collal), Mm01254476_m1 (Col3A1), Mm01256744_m1 (Fn1), Mm04205640_g1 (Cdkn1a), Mm01192932_g1 (Ctgf), and Mm00435860_m1 (Serpine1), Mm00448744_m1 (Ski), Mm00456917_m1 (Skil), Mm00484742_m1 (Smad7) and Mm00607939_s1 (Actb) (Life Technologies). For human samples, the following probes were used: Hs00943809_m1 (COL3A1), Hs00365052_m1 (FN1), Hs00161707_m1 (SKI), Hs01045418_m1 (SKIL) and Hs01060665_g1 (ACTB). Reactions were run in triplicate, and relative quantification for each transcript was obtained by normalizing against housekeeping control transcript such as β-ACTIN (ACTB) according to the formula 2^−Ct/2^−Ct(ACTB).

VSMC/Ski G34D/+ mice [1] = test: Aortic root diameter and growth by echocardiography in C646-treated mice; format: in vivo, mouse; details: for Final absolute aortic root diameter: C646 5 mg/kg/day IP from 8 weeks of age; for Final absolute aortic root diameter / Final absolute aortic root growth rate: 12 weeks of treatment, +/−SEM; for Final absolute aortic root growth rate: C646 5 mg/kg/day IP
Description: (§1) C646 (Selleckchem, #S7152) was reconstituted in 10% DMSO (Sigma) dissolved in PBS, and administered daily by intraperitoneal (IP) injection at dose of 5 mg/kg/day. Treatment was initiated at 8 weeks of age and continued for 12 weeks. 10% DMSO in PBS was administered as a control.
Nair hair removal cream was used to remove fur from the anterior thorax of the mice the day prior to echocardiography. According to previously described with slight modifications (1), all echocardiography were performed on mice that were awake and unsedated with the use of the Vevo 2100 imaging system and 40 MHz transducer (Visualsonics). Mice were imaged at 8 weeks of age as a baseline and every 4 weeks thereafter, until 20 weeks of age. Mice aorta were imaged in the parasternal long-axis view. Three separate measurements of the maximal internal dimension at the sinus of Valsalva during systole were made in separate cardiac cycles and averaged. All imaging and analysis was performed blinded to genotype and treatment arm.

VSMC/Ski G34D/+ mice [2] = test: Aortic root histology (VVG and Masson-trichrome staining): wall thickness, elastin fiber disruptions; format: in vivo, mouse; details: for Final absolute aortic wall thickness / Final number of disruptions in elastin fiber architecture: C646 5 mg/kg/day IP, 12 weeks, aortic root sections, +/−SEM
Description: According to a previously described protocol with slight modification (1), mice that were analyzed for aortic histology had latex infused into the left ventricle through descending abdominal aorta. Mice were then fixed for 24 hours in 10% neutral buffered formalin and then switched into 70% ethanol until histological analysis was performed.
as §1
According to previously described protocols with slight modifications (1), latex-infused heart and aorta were removed from body and transected just below the level of the aortic annulus, and just above aortic root, and 2-3 mm transverse sections were mounted in 4% agar prior to paraffin fixation. Five micron aortic sections underwent Verhoeff-van Giesen (VVG) and Masson's Trichrome staining, and were imaged 40× magnification, using a Nikon Eclipse E400 microscope. Aortic wall thickness was measured of four sites of four representative sections for each mouse and the disruptions of elastin fiber architecture were counted in four sections every 25 micron from aortic annulus. All analyses were performed blinded to genotype and treatment arm and the results were averaged.

[3] = tested on: histone 3 lysine 27 acetylation (H3K27ac); test: Immunofluorescent detection of H3K27ac in aortic roots; format: in vivo, mouse; details: VSMC/Ski G34D/+ mice, C646 5mg/kg/day vs DMSO-treated
Description: For aorta frozen section, harvested aorta with heart was fixed in fresh 4% paraformaldehyde in PBS at 4 degree overnight and then placed in cold 30% sucrose in PBS solution and incubated at 4 degree overnight again. Tissue was then embedded in Tissue-Tek O.C.T compound ad snap-frozen in liquid nitrogen and stored at minus 80 degree until processed.
as §1
Immunofluorescence staining was performed as previous described (3). Frozen 10 μm long-axis view sections were obtained with a cryostat and mounted on glass slides. Sections were dried for at room temperature for overnight prior to staining. Sections were permeabilized in staining buffer (PBS containing 0.1% Triton-X 100) for 30 minutes and then incubated with Fc Receptor Block from Innovex for 30 minutes at room temperature, washed briefly in staining buffer, and then incubated again in blocking solution (0.1% Triton-X 100, 1:50 goat serum, 0.3M glycine) for 30 minutes. […]

TGFβ target genes = test: qPCR of TGFβ target genes in mouse aorta; format: in vivo; details: C646 treated vs DMSO treated VSMC/Ski G34D/+ mice
From the text: For quantitative RT-PCR and chromatin immunoprecipitation, mice aortic root and ascending aorta (above aortic root to the origin of right brachiocephalic trunk) harvested separately, snap-frozen in liquid nitrogen and stored at minus 80 degrees Celsius until processed. For RNA extraction, Aortas were homogenized in Trizol (ThermoFisher) by FastPrep-24 (MP Biomedicals, LLC.), as per the manufacturer's manual. After homogenization, RNA was extracted by RNeasy mini kit (QIAGEN), as per the manufacturer's manual. RNA samples were then stored once more at minus 80 degrees until quantitative RT-PCR experiment was performed.
C646 (Selleckchem, #S7152) was reconstituted in 10% DMSO (Sigma) dissolved in PBS, and administered daily by intraperitoneal (IP) injection at dose of 5 mg/kg/day. Treatment was initiated at 8 weeks of age and continued for 12 weeks. […]
Total RNA was isolated from mouse aortas or cultured cells by RNeasy mini kit (QIAGEN), as per the manufacturer's manual. Quantitative PCR was performed in triplicate with TaqMan Universal PCR Master Mix using an ABI Prism 7900 HT QPCR machine (all from Applied Biosystems), as per the manufacturer's manual. […] Reactions were run in triplicate, and relative quantification for each transcript was obtained by normalizing against housekeeping control transcript such as β-ACTIN (ACTB) according to the formula 2^−Ct/2^−Ct(ACTB).

[4] = SD208 10 μM for 1 hour pre-treated before TGFβ1 stimulation (10 ng/ml for 6 hours)
[5] = C646 2004 for 24 hours pre-treated before TGFβ1 stimulation
[6] = C646 2004 for 24 hours pre-treated before TGFβ1 stimulation (10 ng/ml for 6 hours)

SMILES | Expression level of COL3A1 and FN1 relative to β-actin (SGS patient fibroblasts; [4]) | Expression level of SKI and SMAD7 relative to β-actin (SGS patient fibroblasts; [4]) | Aortic root diameter (in words) (VSMC/Ski G34D/+ mice [1]; C646 treated vs DMSO treated VSMC/Ski G34D/+ mice, echocardiogram) | Final absolute aortic root diameter (VSMC/Ski G34D/+ mice [1]; Control mice, echocardiogram) | Final absolute aortic root growth rate (VSMC/Ski G34D/+ mice [1]; Control mice) | Final absolute aortic root diameter (VSMC/Ski G34D/+ mice [1]; VSMC/Ski G34D/+ mice, echocardiogram) | Final absolute aortic root growth rate (VSMC/Ski G34D/+ mice [1]; VSMC/Ski G34D/+ mice) | Aneurysm progression (VSMC/Ski G34D/+ mice [1]; systemically-administered C646 in Ski VSMC:G34D/+ mice) | Aortic wall architecture: medial thickening, elastic fiber fragmentation, collagen deposition (in words) (VSMC/Ski G34D/+ mice [2]; C646 treated vs DMSO treated VSMC/Ski G34D/+ mice, VVG and Masson-trichrome staining) | Final absolute aortic wall thickness (VSMC/Ski G34D/+ mice [2]; Control mice) | Final number of disruptions in elastin fiber architecture (VSMC/Ski G34D/+ mice [2]; Control mice) | Final absolute aortic wall thickness (VSMC/Ski G34D/+ mice [2]; VSMC/Ski G34D/+ mice) | Final number of disruptions in elastin fiber architecture (VSMC/Ski G34D/+ mice [2]; VSMC/Ski G34D/+ mice) | Difference of COL3A1 and FN1 expression level between C646 treated SGS patient fibroblast and vehicle treated control fibroblasts (SGS patient fibroblasts; [5]) | Difference of SKI expression level between C646 treated SGS patient fibroblast and vehicle treated control fibroblast (SGS patient fibroblasts; [5]) | TGFβ target gene expression in SGS patient fibroblasts (SGS patient fibroblasts; comparable efficiency of a TGFβ type I receptor (Alk5) kinase inhibitor) | Expression level of COL3A1 and FN1 relative to β-actin (SGS patient fibroblasts; [6]) | Expression level of SKI and SMAD7 relative to β-actin (SGS patient fibroblasts; [6]) | H3K27 acetylation in aortic root [3] | Expression levels of TGFβ target genes relative to β-actin in aorta (TGFβ target genes)
Fc1ccc(Cl)cc1-c1nc(Nc2ccncc2)c2nccnc2n1 [SD208] | significantly decreased expression level | significantly decreased expression level | – | – | – | – | – | – | – | – | – | – | – | – | – | – | – | – | – | –
CC1=NN(c2ccc(C(=O)O)cc2)C(=O)C1=Cc1ccc(-c2cc(C)c(C)cc2[N+](=O)[O-])o1 (stereo in doubt) [C646, 4-[(4Z)-4-[[5-(4,5-dimethyl-2-nitrophenyl)furan-2-yl]methylidene]-3-methyl-5-oxopyrazol-1-yl]benzoic acid] | – | – | normalized aortic root diameter; also recorded: rescued aortic root diameter | 1.686+/−0.024 mm | 0.067+/−0.023 mm/12 weeks | 1.848+/−0.045 mm | 0.119+/−0.042 mm/12 weeks | abrogates aneurysm progression; also recorded: prevented aneurysm progression | reduced medial thickening and elastic fiber fragmentation and the recovered collagen deposition; also recorded: preserves aortic wall architecture; also recorded: preservation of aortic wall architecture | 58.547+/−1.415 μm | 1+/−0.577 | 63.438+/−1.818 μm | 6+/−1.155 | no significant difference | no significant difference | normalized TGFβ target gene expression | significantly decreased expression level | significantly decreased expression level | decreased H3K27 acetylation; also recorded: prevention of excessive Histone 3 Lysine 27 (H3K27) acetylation | decreased expression levels of TGFβ target genes except COL1A1, SKI and SKIL; also recorded: normalizes gene expression in the aorta; also recorded: normalization of the TSR

From patent US11273148B2, “Targeted epigenetic therapy for inherited aortic aneurysm condition” (The Johns Hopkins University, priority 2017, dated 2022)
